Data reported in patent publication US20110165128A1, “HOMING IN MESENCHYMAL STEM CELLS” (Columbia University in the City of New York, priority 2008, published 2011).

Tested on: adhesion of hMSCs to HUVECs
Test: Adhesion assay: adhesion of hMSCs to endothelial cells (HUVECs)
Format: cell-based, human
Settings: 0.5 μg/ml SDF-1 or 10 μM AMD3100
Text: Exposure of cells to hypoxia: HUVECs were exposed to hypoxia in a BD GasPak EZ Anaerobe Gas Generating Pouch System with an Indicator (BD Biosciences) as described (Potapova, 2007). As certified by the manufacturer, the Anaerobe Gas Generating Pouch System produces an atmosphere containing 10% carbon dioxide and 1% oxygen.
Adhesion Assay: Adhesion of hMSCs to endothelial cells was studied using hMSCs isolated from a monolayer or 3 day old hMSC spheroids. Cells were dissociated using 0.25% trypsin-EDTA solution (Lonza) for 15 min in the case of hMSC monolayers, or for 90 min in the case of the spheroids. Trypsinization was stopped by addition of trypsin inhibitor solution (Lonza). Isolated cells were washed with PBS, labeled with 2 μg/ml Calcein AM in HBSS for 45 min at 37 °C in a humidified atmosphere of 5% CO2, washed with HBSS and resuspended in DMEM supplemented with 5% fetal bovine serum. HUVECs were plated in 24 well plates and maintained in EBM-2 growth media for 2-3 days until they reached confluence. For the adhesion assay, EBM-2 media was replaced with 0.5 ml of DMEM supplemented with 5% fetal bovine serum. hMSCs (10,000 cells per well) were added to endothelial cells. The adhesion assay was performed in the presence 0.5 μg/ml SDF-1, 10 μM AMD3100 or without additives. Plates were placed on a rotation platform (30 rotations per min) and incubated for 30 min at 37° C. […] Fluorescence was acquired from the bottom of the plates using a POLARstar OPTIMA microplate reader at excitation/emission wavelengths of 485/520 nm. Background fluorescence was determined in the wells containing no hMSCs but a monolayer of endothelial cells. Total cell load was estimated as the fluorescence from non-washed wells with added hMSCs. A minimum six wells were used to estimate background fluorescence, total cell load or fluorescence from adhered cells. Percent of bound cells was calculated as a ratio between fluorescence of adhered cells and total cell load after subtraction of background fluorescence. […]

With `c1cc(CN2CCCNCCNCCCNCC2)ccc1CN1CCCNCCNCCCNCC1` [AMD3100] the “effect on the adhesion of cells from the spheroids to endothelial cells preexposed to hypoxia” value (cells from 3 day old hMSC spheroids, HUVECs pre-exposed to hypoxia) was “no effect”, the “stimulation of the adhesion of cells from the spheroids to normoxic endothelial cells” value (cells from 3 day old hMSC spheroids, normoxic HUVECs) was 1.7±0.4 times and the “effect on the adhesion of hMSCs from a monolayer to endothelial cells” value (hMSCs from a monolayer, normoxic or pre-exposed to hypoxia HUVECs) was “Neither SDF-1 nor AMD3100 affected the adhesion”.
